Experimental data as given in the kinase profiling compilation of Christmann-Franck et al. (2016).

What was measured:
Assay in all cases: KINOMEscan competition binding
Details in all cases: compound 10.0 µM
ACVR1 (human) = ACVR1 (human) (UniProt Q04771)
AKT3 (human) = AKT3 (human) (UniProt Q9Y243)
CASK (human) = CASK (human) (UniProt O14936)
CDK11B (human) = CDK11B (human) (UniProt P21127)
CDK17 (human) = CDK17 (human) (UniProt Q00537)
CIT (human) = CIT (human) (UniProt O14578)
CSK (human) = CSK (human) (UniProt P41240)
CSNK1G3 (human) = CSNK1G3 (human) (UniProt Q9Y6M4)
Sequence of CSNK1G3 (human) (Q9Y6M4 whole entry, looked up): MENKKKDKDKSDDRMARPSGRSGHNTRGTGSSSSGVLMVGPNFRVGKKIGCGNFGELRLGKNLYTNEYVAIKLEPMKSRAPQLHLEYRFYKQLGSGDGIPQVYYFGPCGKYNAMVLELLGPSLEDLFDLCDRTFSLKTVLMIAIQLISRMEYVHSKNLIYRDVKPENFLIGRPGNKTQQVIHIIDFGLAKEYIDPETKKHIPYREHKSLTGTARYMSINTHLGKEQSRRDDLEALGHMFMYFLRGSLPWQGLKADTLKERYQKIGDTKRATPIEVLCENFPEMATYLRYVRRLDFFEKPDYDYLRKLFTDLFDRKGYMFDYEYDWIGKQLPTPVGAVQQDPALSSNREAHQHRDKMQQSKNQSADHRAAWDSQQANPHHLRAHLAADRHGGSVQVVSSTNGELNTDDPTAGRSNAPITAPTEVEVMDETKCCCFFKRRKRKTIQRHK

[1] = tested on: EGFR (human), P00533 [A750P; 747-749 del]
EIF2AK1 (human) = EIF2AK1 (human) (UniProt Q9BQI3)
EPHA1 (human) = EPHA1 (human) (UniProt P21709)
EPHA3 (human) = EPHA3 (human) (UniProt P29320)
EPHB4 (human) = EPHB4 (human) (UniProt P54760)
IRAK1 (human) = IRAK1 (human) (UniProt P51617)
[2] = biological target: JAK2 JH1 catalytic (human) (UniProt O60674)
MAP2K3 (human) = MAP2K3 (human) (UniProt P46734)
Sequence of MAP2K3 (human) (P46734 whole entry, looked up): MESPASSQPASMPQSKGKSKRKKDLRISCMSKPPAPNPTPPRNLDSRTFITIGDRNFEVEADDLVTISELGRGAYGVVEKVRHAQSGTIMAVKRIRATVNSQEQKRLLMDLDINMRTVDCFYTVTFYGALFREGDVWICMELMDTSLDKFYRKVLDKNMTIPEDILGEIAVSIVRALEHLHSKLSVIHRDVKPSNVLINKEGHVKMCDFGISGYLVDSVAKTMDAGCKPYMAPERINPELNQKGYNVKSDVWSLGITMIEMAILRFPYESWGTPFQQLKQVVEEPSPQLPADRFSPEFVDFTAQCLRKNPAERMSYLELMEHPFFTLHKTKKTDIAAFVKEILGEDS

MAP3K10 (human) = MAP3K10 (human) (UniProt Q02779)
MAPK10 (human) = MAPK10 (human) (UniProt P53779)
MLTK (human) = MLTK (human) (UniProt Q9NYL2)
MYLK4 (human) = MYLK4 (human) (UniProt Q86YV6)
OXSR1 (human) = OXSR1 (human) (UniProt O95747)
Sequence of OXSR1 (human) (O95747 whole entry, looked up): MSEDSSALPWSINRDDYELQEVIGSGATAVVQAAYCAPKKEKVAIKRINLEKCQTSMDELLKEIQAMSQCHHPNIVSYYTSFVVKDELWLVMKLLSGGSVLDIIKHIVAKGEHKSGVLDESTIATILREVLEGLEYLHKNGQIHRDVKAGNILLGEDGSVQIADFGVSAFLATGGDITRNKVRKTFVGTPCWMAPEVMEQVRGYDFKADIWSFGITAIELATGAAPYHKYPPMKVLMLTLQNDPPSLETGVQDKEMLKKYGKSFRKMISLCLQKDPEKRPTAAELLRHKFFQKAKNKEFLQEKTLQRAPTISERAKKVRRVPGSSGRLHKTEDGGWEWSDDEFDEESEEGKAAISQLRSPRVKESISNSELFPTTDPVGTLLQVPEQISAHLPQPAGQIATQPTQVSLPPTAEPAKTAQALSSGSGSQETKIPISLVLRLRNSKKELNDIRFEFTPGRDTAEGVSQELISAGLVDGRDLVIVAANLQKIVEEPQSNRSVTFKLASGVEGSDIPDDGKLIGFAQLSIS

PDGFRA (human) = PDGFRA (human) (UniProt P16234)
Sequence of PDGFRA (human) (P16234 whole entry, looked up): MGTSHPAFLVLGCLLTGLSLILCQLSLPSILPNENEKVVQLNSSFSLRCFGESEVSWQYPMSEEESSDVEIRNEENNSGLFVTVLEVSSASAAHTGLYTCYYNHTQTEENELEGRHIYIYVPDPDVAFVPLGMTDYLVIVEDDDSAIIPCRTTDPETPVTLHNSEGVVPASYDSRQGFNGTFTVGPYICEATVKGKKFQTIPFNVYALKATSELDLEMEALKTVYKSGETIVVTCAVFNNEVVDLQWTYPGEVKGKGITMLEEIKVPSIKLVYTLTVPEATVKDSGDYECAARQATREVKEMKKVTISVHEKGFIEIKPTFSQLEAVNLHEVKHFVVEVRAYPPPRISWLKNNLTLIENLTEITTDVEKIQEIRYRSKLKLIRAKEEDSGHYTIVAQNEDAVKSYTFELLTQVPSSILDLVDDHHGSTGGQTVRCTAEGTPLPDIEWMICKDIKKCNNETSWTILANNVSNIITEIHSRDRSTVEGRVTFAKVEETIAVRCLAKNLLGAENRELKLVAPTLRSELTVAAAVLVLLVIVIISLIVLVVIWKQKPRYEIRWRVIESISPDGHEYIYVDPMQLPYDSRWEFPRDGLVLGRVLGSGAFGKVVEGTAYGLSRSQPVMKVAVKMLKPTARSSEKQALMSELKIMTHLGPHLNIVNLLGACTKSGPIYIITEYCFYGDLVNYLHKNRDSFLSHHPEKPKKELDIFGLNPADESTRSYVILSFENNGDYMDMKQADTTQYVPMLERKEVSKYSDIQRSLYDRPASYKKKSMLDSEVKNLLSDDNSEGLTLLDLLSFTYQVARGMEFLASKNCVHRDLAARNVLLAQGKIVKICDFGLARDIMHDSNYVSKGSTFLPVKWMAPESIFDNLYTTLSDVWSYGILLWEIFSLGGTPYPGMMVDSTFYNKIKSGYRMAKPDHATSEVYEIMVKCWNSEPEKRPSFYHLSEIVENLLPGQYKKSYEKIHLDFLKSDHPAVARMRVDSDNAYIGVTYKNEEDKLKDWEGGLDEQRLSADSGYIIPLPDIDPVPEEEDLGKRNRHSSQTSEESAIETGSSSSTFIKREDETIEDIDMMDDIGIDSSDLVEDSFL

PDPK1 (human) = PDPK1 (human) (UniProt O15530)
PI4KB (human) = PI4KB (human) (UniProt Q9UBF8)
[3] = tested on: PIK3CA (human), P42336 [H1047L]
PIP5K1C (human) = PIP5K1C (human) (UniProt O60331)
PRKCH (human) = PRKCH (human) (UniProt P24723)
PRKD1 (human) = PRKD1 (human) (UniProt Q15139)
RIPK4 (human) = RIPK4 (human) (UniProt P57078)
ROS1 (human) = ROS1 (human) (UniProt P08922)
RPS6KA2 KD2 (human) = RPS6KA2 KD2 (human) (UniProt Q15349)
Sequence of RPS6KA2 KD2 (human) (Q15349 whole entry, looked up): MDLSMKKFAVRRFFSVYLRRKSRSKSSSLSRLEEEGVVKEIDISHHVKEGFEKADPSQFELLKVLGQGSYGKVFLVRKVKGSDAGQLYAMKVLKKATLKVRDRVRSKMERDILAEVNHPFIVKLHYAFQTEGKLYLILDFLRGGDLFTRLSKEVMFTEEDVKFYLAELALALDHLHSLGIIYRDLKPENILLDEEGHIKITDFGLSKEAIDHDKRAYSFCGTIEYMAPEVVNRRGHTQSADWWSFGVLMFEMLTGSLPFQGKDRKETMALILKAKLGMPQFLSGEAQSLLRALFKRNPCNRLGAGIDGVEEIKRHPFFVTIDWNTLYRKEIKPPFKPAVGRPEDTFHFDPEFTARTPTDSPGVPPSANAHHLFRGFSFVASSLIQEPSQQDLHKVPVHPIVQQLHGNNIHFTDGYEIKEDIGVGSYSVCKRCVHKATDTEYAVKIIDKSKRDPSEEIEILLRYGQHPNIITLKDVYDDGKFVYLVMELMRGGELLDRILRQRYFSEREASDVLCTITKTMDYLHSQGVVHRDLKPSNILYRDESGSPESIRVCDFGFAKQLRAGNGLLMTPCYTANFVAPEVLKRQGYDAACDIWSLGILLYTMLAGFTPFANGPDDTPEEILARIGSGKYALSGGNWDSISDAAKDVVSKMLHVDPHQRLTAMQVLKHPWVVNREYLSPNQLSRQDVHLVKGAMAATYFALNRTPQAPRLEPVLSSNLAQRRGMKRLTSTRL

RPS6KA5 KD2 (human) = RPS6KA5 KD2 (human) (UniProt O75582)
RPS6KA6 KD2 (human) = RPS6KA6 KD2 (human) (UniProt Q9UK32)
Sequence of RPS6KA6 KD2 (human) (Q9UK32 whole entry, looked up): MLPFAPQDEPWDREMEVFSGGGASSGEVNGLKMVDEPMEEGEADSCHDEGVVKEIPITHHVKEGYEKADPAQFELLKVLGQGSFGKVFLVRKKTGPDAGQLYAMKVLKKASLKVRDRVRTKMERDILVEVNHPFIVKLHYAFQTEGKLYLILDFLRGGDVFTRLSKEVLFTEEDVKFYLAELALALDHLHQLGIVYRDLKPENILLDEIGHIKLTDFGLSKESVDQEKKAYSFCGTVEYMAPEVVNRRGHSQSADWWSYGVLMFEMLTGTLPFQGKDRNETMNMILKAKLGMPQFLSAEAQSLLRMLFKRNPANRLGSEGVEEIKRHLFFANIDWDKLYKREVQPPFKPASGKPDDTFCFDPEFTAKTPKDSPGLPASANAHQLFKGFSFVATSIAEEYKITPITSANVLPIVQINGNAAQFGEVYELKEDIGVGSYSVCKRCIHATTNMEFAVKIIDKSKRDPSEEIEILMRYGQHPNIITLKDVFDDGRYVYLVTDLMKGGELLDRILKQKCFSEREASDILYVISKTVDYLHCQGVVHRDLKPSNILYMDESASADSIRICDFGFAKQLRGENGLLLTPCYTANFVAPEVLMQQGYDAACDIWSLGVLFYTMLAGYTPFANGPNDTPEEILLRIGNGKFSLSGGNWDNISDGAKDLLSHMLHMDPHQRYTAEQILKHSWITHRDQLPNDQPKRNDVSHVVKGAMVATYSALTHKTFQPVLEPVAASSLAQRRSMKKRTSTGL

RPS6KB1 (human) = RPS6KB1 (human) (UniProt P23443)
Sequence of RPS6KB1 (human) (P23443 whole entry, looked up): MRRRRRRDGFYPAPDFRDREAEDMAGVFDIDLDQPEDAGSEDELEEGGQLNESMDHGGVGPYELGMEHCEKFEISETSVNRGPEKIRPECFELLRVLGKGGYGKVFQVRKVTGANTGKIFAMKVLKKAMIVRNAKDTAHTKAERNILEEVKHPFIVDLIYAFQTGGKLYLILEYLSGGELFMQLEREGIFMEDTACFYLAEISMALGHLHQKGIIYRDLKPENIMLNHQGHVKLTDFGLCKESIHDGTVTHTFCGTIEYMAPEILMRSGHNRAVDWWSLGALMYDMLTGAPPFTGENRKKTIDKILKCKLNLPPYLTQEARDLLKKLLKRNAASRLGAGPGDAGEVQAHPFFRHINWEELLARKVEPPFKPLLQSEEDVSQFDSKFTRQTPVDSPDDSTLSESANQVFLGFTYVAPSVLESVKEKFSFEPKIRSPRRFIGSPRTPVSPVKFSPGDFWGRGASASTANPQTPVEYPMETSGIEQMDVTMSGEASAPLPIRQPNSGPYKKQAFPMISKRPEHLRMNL

SGK110 (human) = SGK110 (human) (UniProt P0C264)
STK32A (human) = STK32A (human) (UniProt Q8WU08)
TLK1 (human) = TLK1 (human) (UniProt Q9UKI8)
TXK (human) = TXK (human) (UniProt P42681)
Sequence of TXK (human) (P42681 whole entry, looked up): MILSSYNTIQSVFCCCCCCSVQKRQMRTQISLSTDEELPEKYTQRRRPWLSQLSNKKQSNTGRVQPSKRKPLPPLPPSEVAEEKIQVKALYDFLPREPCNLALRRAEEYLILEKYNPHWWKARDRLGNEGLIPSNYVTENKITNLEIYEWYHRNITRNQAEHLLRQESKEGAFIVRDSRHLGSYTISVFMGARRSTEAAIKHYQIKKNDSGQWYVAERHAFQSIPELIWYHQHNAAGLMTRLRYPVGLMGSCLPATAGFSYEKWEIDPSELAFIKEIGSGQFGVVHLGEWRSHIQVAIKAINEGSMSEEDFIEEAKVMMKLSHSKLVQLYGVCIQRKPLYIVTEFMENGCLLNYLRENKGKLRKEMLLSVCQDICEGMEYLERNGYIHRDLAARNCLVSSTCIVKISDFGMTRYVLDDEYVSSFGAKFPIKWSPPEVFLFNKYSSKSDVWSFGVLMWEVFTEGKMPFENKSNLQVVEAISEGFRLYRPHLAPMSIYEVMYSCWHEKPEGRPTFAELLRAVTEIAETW

WEE1 (human) = WEE1 (human) (UniProt P30291)
PRKACA (human) = PRKACA (human) (UniProt P17612)

| Compound | kinase still bound, per cent of control (ACVR1 (human)) [%] | kinase still bound, per cent of control (AKT3 (human)) [%] | kinase still bound, per cent of control (CASK (human)) [%] | kinase still bound, per cent of control (CDK11B (human)) [%] | kinase still bound, per cent of control (CDK17 (human)) [%] | kinase still bound, per cent of control (CIT (human)) [%] | kinase still bound, per cent of control (CSK (human)) [%] | kinase still bound, per cent of control (CSNK1G3 (human)) [%] | kinase still bound, per cent of control (EIF2AK1 (human)) [%] | kinase still bound, per cent of control (EPHA1 (human)) [%] | kinase still bound, per cent of control (EPHA3 (human)) [%] | kinase still bound, per cent of control (EPHB4 (human)) [%] | kinase still bound, per cent of control (IRAK1 (human)) [%] | kinase still bound, per cent of control [2] [%] | kinase still bound, per cent of control (MAP3K10 (human)) [%] | kinase still bound, per cent of control (MLTK (human)) [%] | kinase still bound, per cent of control (OXSR1 (human)) [%] | kinase still bound, per cent of control (PDGFRA (human)) [%] | kinase still bound, per cent of control (PDPK1 (human)) [%] | kinase still bound, per cent of control (PI4KB (human)) [%] | also measured |
| --- | --- | --- | --- | --- | --- | --- | --- | --- | --- | --- | --- | --- | --- | --- | --- | --- | --- | --- | --- | --- | --- |
| CC1=C(C(=O)Nc2cc3cn[nH]c3cc2F)C(c2ccc(C(F)(F)F)cc2)CC(=O)N1 (stereo not drawn) | 100 | 40 | 88 | 89 | 91 | 87 | 100 | 90 | 89 | 77 | 88 | 88 | 90 | 12 | 92 | 92 | 92 | 84 | 100 | 100 | kinase still bound, per cent of control [1]: 36%; kinase still bound, per cent of control (MAP2K3 (human)): 67%; kinase still bound, per cent of control (MAPK10 (human)): 88%; kinase still bound, per cent of control (MYLK4 (human)): 88%; kinase still bound, per cent of control [3]: 83%; kinase still bound, per cent of control (PIP5K1C (human)): 92%; kinase still bound, per cent of control (PRKCH (human)): 35%; kinase still bound, per cent of control (PRKD1 (human)): 76%; kinase still bound, per cent of control (RIPK4 (human)): 98%; kinase still bound, per cent of control (ROS1 (human)): 100%; kinase still bound, per cent of control (RPS6KA2 KD2 (human)): 94%; kinase still bound, per cent of control (RPS6KA5 KD2 (human)): 87%; kinase still bound, per cent of control (RPS6KA6 KD2 (human)): 85%; kinase still bound, per cent of control (RPS6KB1 (human)): 50%; kinase still bound, per cent of control (SGK110 (human)): 59%; kinase still bound, per cent of control (STK32A (human)): 52%; kinase still bound, per cent of control (TLK1 (human)): 90%; kinase still bound, per cent of control (TXK (human)): 83%; kinase still bound, per cent of control (WEE1 (human)): 94% |
| N#C/C(=C1/Nc2ccccc2S1)c1ccnc(NCCc2cccnc2)n1 | 86 | 100 | 100 | 96 | 98 | 59 | 88 | 100 | 100 | 100 | 73 | 100 | 6.2 | 45 | 85 | 97 | 62 | 100 | 100 | 20 | kinase still bound, per cent of control (MAP2K3 (human)): 33%; kinase still bound, per cent of control (MYLK4 (human)): 16%; kinase still bound, per cent of control [3]: 85%; kinase still bound, per cent of control (PIP5K1C (human)): 8.2%; kinase still bound, per cent of control (PRKACA (human)): 100%; kinase still bound, per cent of control (PRKCH (human)): 100%; kinase still bound, per cent of control (PRKD1 (human)): 100%; kinase still bound, per cent of control (RIPK4 (human)): 8%; kinase still bound, per cent of control (ROS1 (human)): 100%; kinase still bound, per cent of control (RPS6KA2 KD2 (human)): 56%; kinase still bound, per cent of control (RPS6KA5 KD2 (human)): 72%; kinase still bound, per cent of control (RPS6KA6 KD2 (human)): 52%; kinase still bound, per cent of control (RPS6KB1 (human)): 41%; kinase still bound, per cent of control (SGK110 (human)): 100%; kinase still bound, per cent of control (STK32A (human)): 100%; kinase still bound, per cent of control (TLK1 (human)): 57%; kinase still bound, per cent of control (TXK (human)): 61%; kinase still bound, per cent of control (WEE1 (human)): 100% |
| CCc1nc(-c2cccc(C)c2)c(-c2ccnc(NC(=O)c3ccccc3)c2)s1 | 9.6 | 95 | 100 | 88 | 99 | 0.45 | 88 | 17 | 100 | 56 | 69 | 53 | 99 | 100 | 100 | 9.4 | 100 | 84 | 89 | 100 | kinase still bound, per cent of control (MAP2K3 (human)): 96%; kinase still bound, per cent of control (MAPK10 (human)): 0%; kinase still bound, per cent of control (MYLK4 (human)): 100%; kinase still bound, per cent of control [3]: 100%; kinase still bound, per cent of control (PIP5K1C (human)): 100%; kinase still bound, per cent of control (PRKACA (human)): 85%; kinase still bound, per cent of control (PRKCH (human)): 88%; kinase still bound, per cent of control (PRKD1 (human)): 65%; kinase still bound, per cent of control (RIPK4 (human)): 90%; kinase still bound, per cent of control (ROS1 (human)): 69%; kinase still bound, per cent of control (RPS6KA2 KD2 (human)): 86%; kinase still bound, per cent of control (RPS6KA5 KD2 (human)): 100%; kinase still bound, per cent of control (RPS6KA6 KD2 (human)): 4.3%; kinase still bound, per cent of control (RPS6KB1 (human)): 90%; kinase still bound, per cent of control (SGK110 (human)): 100%; kinase still bound, per cent of control (STK32A (human)): 9%; kinase still bound, per cent of control (TLK1 (human)): 82%; kinase still bound, per cent of control (TXK (human)): 75%; kinase still bound, per cent of control (WEE1 (human)): 100% |
| CCN(CCO)CCCOc1ccc2c(Nc3cc(CC(=O)Nc4cccc(F)c4)[nH]n3)ncnc2c1 | 81 | 88 | 88 | 6.5 | 73 | 27 | 24 | 100 | 5.2 | 100 | 62 | 100 | 63 | 58 | 92 | 63 | 100 | 0 | 100 | 100 | kinase still bound, per cent of control (MAPK10 (human)): 41%; kinase still bound, per cent of control [3]: 73%; kinase still bound, per cent of control (PIP5K1C (human)): 75%; kinase still bound, per cent of control (PRKACA (human)): 100%; kinase still bound, per cent of control (PRKCH (human)): 100%; kinase still bound, per cent of control (PRKD1 (human)): 72%; kinase still bound, per cent of control (RIPK4 (human)): 41%; kinase still bound, per cent of control (ROS1 (human)): 100%; kinase still bound, per cent of control (RPS6KA2 KD2 (human)): 77%; kinase still bound, per cent of control (RPS6KA5 KD2 (human)): 100%; kinase still bound, per cent of control (RPS6KA6 KD2 (human)): 64%; kinase still bound, per cent of control (RPS6KB1 (human)): 13%; kinase still bound, per cent of control (SGK110 (human)): 100%; kinase still bound, per cent of control (STK32A (human)): 100%; kinase still bound, per cent of control (TLK1 (human)): 60%; kinase still bound, per cent of control (TXK (human)): 100%; kinase still bound, per cent of control (WEE1 (human)): 100% |
